# Measurements from article PMC10895674, “First-in-Class Dual EZH2-HSP90 Inhibitor Eliciting Striking Antiglioblastoma Activity In Vitro and In Vivo” (Journal of Medicinal Chemistry, 2024).
# Read-outs that look alike come from different tables or passages of the source.
# Tests used:
# Pt3R cells [1] = assay: Itraq-based proteomics analysis of global protein expression; format: cell-based, human; details: 2 μM
# Source text: Having identified the desired chemical probe 7, we assessed global protein expression using Itraq-based proteomics analysis to estimate whether 7 suppresses HSP90 (Pt3R cell lines). […] This observation is aligned with the results attained with geldanamycin treatment (a well-known HSP90 inhibitor)[49],[50] and confirms the HSP90-suppressive activity of compound 7 in GBM cells.
# RNA was isolated using the RNA extracting kit (Zymo Research, Irvine, CA) and subjected to RNA-seq serviced by BIOTOOLS Co., Ltd. (New Taipei City, Taiwan). Cell pellets were collected and subjected to proteomic analysis serviced by BIOTOOLS Co., Ltd. The comparison in gene expression between Pt3 and Pt3R was performed using RNA seq and described previously.[60]
# [2] = Pharmacokinetics IV and PO; design: species or system Rat; details: in vivo
# Method: Table S1: Pharmacokinetic data of compound 7
# Rat IV (dose: 2 mg/kg) Rat PO (dose: 20 mg/kg)
# T1/2 CL Vss AUC(0-inf) T1/2 Cmax Tmax AUC(0-inf) F
# (hr) (ml/min/kg) (l/kg) (ng/mL*hr) (hr) (ng/ml) (hr) (ng/mL*hr) (%)
# Sample Time (hr) Avg. S.D.
# Pt3R cells [3] = assay: Cell cycle analysis (PI staining, flow cytometry); format: cell-based, human; details: 24 h treatment (Figure 8E)
# Method: Figure 8 Compound 7 suppresses gene expression of CENP family. (A) Compound 7-suppressed CENP family. (B) Gene expression of CENP family in Pt3 and TMZ-resistant Pt3R cells. (C) Prognostic value was analyzed using the GlioVis Web site. (D) Western blotting was used to confirm that compound 7 decreased CENPs expression. (E) Cell cycle analysis. After treatment for 24 h, cells were stained with propidium iodide (PI) and subjected to flow cytometry analysis.
# EZH2 = EZH2 (Homo sapiens, UniProt Q15910); assay: EZH2 inhibition assay (Reaction Biology Corp.); format: biochemical; details: 10-dose IC50 mode, 3-fold serial dilution starting at 10 μM, single experiment
# Method: The EZH2 inhibitory ability of the synthesized adduct was assessed by Reaction Biology Corporation Malvern, PA. (http://www.reactionbiology.com).
# mitochondria-derived ROS = assay: MitoSOX assay; format: cell-based; details: Figure 10C
# Method: Thus, the ability of compound 7 to disturb redox homeostasis in TMZ-resistant cells and attain amplified therapeutic efficacy for GBM was evaluated. In both Pt3 and Pt3R cells, treatment with compound 7 for 48 h increased the ROS level (Figure 10A). […] Moreover, it was also observed that compound 7 increased mitochondria-derived ROS.
# Figure 10 Compound 7 triggers ROS production from mitochondria. (A) After treatment for 48 h, cells were stained with the DHR reagent, and the fluorescent signal was estimated by flow cytometry. Treatment concentration of compound 7 was indicated. (B) Protein lysates were subjected to Western blotting using the indicated antibody. (C) After staining with MitoSOX (red) and Hoechst 33342 (blue), cellular signals were photographed and quantified D. Protein lysates were subjected to Western blotting using the indicated antibody.
# Dihydrorhodamine 123 (DHR; Thermo Fisher Scientific, Waltham, MA) was used to label cellular ROS detected by the flow cytometry,[54] and the MitoSOX reagent (Thermo Fisher Scientific) was used to label mitochondrial ROS.[55]
# [4] = Rat IV 2 mg/kg, read-out: Drug Conc. Avg.
# [5] = Rat PO 20 mg/kg, read-out: Drug Conc. Avg.
# Sequence of EZH2 (Q15910 whole entry): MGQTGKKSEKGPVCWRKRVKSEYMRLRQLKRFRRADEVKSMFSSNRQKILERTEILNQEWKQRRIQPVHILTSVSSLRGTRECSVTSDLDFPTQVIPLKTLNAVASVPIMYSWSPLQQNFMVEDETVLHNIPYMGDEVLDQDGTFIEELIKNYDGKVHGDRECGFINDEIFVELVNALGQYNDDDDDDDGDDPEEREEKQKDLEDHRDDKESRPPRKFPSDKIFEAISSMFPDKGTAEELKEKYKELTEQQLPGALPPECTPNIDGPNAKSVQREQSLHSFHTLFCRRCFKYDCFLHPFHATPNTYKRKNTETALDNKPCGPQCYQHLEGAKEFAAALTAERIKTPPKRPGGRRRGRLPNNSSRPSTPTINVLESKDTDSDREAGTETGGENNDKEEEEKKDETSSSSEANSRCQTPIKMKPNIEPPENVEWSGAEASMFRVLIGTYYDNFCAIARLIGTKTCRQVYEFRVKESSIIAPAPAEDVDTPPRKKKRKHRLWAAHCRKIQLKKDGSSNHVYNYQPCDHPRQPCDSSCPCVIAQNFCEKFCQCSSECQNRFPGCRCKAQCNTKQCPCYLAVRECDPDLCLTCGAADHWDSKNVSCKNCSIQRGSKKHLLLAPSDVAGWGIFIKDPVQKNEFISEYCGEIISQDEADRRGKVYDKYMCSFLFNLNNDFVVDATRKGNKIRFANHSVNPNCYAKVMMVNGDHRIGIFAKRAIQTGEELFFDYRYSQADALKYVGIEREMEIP
# Sequence of EZH2 (O75530 whole entry partner): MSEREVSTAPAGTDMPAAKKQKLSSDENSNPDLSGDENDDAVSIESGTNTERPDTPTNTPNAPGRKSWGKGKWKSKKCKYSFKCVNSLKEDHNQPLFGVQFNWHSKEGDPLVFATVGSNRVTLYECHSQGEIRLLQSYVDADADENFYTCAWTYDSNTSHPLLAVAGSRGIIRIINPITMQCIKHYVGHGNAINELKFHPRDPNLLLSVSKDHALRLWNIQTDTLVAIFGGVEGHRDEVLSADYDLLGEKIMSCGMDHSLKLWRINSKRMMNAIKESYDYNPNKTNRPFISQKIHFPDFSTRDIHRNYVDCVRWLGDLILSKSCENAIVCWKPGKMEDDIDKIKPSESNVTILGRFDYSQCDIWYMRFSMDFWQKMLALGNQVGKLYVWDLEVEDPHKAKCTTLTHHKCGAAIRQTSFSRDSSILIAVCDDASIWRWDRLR
# Sequence of EZH2 (Q15022 whole entry partner): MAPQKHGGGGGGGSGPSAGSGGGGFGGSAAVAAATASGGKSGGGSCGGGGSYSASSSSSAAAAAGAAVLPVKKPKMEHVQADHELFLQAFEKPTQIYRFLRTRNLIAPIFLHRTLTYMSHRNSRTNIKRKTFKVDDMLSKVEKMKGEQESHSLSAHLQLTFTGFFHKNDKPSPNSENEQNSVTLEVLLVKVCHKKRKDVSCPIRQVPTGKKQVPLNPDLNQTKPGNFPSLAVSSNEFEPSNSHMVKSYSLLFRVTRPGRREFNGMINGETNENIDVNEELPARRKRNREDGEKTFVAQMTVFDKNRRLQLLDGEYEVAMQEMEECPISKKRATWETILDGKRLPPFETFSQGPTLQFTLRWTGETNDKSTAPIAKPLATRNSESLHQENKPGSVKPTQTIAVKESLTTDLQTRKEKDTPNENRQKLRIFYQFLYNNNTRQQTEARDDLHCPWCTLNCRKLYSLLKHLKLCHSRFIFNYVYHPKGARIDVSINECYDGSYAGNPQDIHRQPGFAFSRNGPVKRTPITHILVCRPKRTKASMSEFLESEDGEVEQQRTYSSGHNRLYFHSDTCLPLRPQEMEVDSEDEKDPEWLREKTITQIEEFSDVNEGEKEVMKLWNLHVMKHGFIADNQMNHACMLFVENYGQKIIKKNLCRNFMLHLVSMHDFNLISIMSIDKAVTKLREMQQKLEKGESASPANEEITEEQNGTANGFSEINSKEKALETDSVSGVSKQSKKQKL
# Sequence of EZH2 (Q09028 whole entry partner): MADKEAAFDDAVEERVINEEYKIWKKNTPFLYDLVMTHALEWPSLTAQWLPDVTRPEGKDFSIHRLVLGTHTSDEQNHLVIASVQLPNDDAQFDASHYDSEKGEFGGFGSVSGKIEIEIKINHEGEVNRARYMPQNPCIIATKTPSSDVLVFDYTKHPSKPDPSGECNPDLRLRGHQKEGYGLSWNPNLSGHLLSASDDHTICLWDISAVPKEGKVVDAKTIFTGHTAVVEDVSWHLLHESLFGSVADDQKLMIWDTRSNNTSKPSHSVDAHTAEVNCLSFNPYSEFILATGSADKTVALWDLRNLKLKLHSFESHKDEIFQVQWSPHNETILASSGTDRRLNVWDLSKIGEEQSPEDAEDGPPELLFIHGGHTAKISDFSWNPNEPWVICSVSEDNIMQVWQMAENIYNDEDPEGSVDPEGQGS
# Sequence of EZH2 (Q6ZN18 whole entry partner): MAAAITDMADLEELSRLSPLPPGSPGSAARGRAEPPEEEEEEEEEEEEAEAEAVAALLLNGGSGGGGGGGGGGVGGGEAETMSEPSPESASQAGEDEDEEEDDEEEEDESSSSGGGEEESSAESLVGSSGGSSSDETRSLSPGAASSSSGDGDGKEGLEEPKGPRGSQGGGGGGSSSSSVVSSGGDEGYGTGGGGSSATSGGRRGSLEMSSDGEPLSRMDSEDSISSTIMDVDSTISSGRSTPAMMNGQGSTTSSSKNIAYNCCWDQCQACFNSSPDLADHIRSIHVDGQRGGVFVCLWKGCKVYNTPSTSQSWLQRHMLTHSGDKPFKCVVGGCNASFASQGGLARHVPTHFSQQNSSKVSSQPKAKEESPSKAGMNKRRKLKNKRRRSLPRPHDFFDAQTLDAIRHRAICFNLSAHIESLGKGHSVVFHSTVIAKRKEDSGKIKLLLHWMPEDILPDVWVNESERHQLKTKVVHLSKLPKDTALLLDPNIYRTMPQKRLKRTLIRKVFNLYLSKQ
smiles,measurement,setting,value
"CCN(c1cc(-c2cccc(N(C)C(=O)c3cc(C(C)C)c(O)cc3O)c2)cc(C(=O)NCc2c(C)cc(C)[nH]c2=O)c1C)C1CCOCC1 [Compound 7, 3′-(2,4-Dihydroxy-5-isopropyl-N-methylbenzamido)-N-((4,6-dimethyl-2-oxo-1,2-dihydropyridin-3-yl)methyl)-5-(ethyl(tetrahydro-2H-pyran-4-yl)amino)-4-methyl-[1,1′-biphenyl]-3-carboxamide]","C7/DMSO, ANXA5 (P08758)",Pt3R cells [1]; protein decreased,0.406
same,"C7/DMSO, CORO1C (Q9ULV4)",Pt3R cells [1]; protein decreased,0.410
same,"C7/DMSO, CYB5B (O43169)",Pt3R cells [1]; protein decreased,0.568
same,"C7/DMSO, DDX6 (P26196)",Pt3R cells [1]; protein decreased,0.596
same,"C7/DMSO, DDX39A (O00148)",Pt3R cells [1]; protein decreased,0.515
same,"C7/DMSO, EIF3I (Q13347)",Pt3R cells [1]; protein decreased,0.624
same,"C7/DMSO, GNB2 (P62879)",Pt3R cells [1]; protein decreased,0.628
same,"C7/DMSO, H1–2 (P16403)",Pt3R cells [1]; protein decreased,0.334
same,"C7/DMSO, H2AZ1 (P0C0S5)",Pt3R cells [1]; protein decreased,0.603
same,"C7/DMSO, H2BC11 (P06899)",Pt3R cells [1]; protein decreased,0.423
same,"C7/DMSO, H2BC12 (O60814)",Pt3R cells [1]; protein decreased,0.419
same,"C7/DMSO, H4C1 (P62805)",Pt3R cells [1]; protein decreased,0.556
same,"C7/DMSO, HADHB (P55084)",Pt3R cells [1]; protein decreased,0.591
same,"C7/DMSO, HIST1H2AH (Q96KK5)",Pt3R cells [1]; protein decreased,0.245
same,"C7/DMSO, HIST2H3A (Q71DI3)",Pt3R cells [1]; protein decreased,0.240
same,"C7/DMSO, HMGB2 (P26583)",Pt3R cells [1]; protein decreased,0.575
same,"C7/DMSO, HMGB3 (O15347)",Pt3R cells [1]; protein decreased,0.573
same,"C7/DMSO, HNRNPA3 (P51991)",Pt3R cells [1]; protein decreased,0.377
same,"C7/DMSO, ILF3 (Q12906)",Pt3R cells [1]; protein decreased,0.645
same,"C7/DMSO, MCM3 (P25205)",Pt3R cells [1]; protein decreased,0.635
same,"C7/DMSO, MCM7 (P33993)",Pt3R cells [1]; protein decreased,0.586
same,"C7/DMSO, NASP (P49321)",Pt3R cells [1]; protein decreased,0.604
same,"C7/DMSO, NT5E (P21589)",Pt3R cells [1]; protein decreased,0.446
same,"C7/DMSO, PA2G4 (Q9UQ80)",Pt3R cells [1]; protein decreased,0.628
same,"C7/DMSO, PCBP1 (Q15365)",Pt3R cells [1]; protein decreased,0.628
same,"C7/DMSO, PTGES3 (Q15185)",Pt3R cells [1]; protein decreased,0.589
same,"C7/DMSO, RACK1 (P63244)",Pt3R cells [1]; protein decreased,0.627
same,"C7/DMSO, RPL26 (P61254)",Pt3R cells [1]; protein decreased,0.619
same,"C7/DMSO, RPL35 (P42766)",Pt3R cells [1]; protein decreased,0.629
same,"C7/DMSO, RPS6 (P62753)",Pt3R cells [1]; protein decreased,0.641
same,"C7/DMSO, RPS10 (P46783)",Pt3R cells [1]; protein decreased,0.608
same,"C7/DMSO, S100A13 (Q99584)",Pt3R cells [1]; protein decreased,0.638
same,"C7/DMSO, SERPINB6 (P35237)",Pt3R cells [1]; protein decreased,0.632
same,"C7/DMSO, SRSF7 (Q16629)",Pt3R cells [1]; protein decreased,0.605
same,"C7/DMSO, TAF15 (Q92804)",Pt3R cells [1]; protein decreased,0.609
same,"C7/DMSO, TNS3 (Q68CZ2)",Pt3R cells [1]; protein decreased,0.582
same,"C7/DMSO, TUBB4B (P68371)",Pt3R cells [1]; protein decreased,0.564
same,"C7/DMSO, TXNDC5 (Q8NBS9)",Pt3R cells [1]; protein decreased,0.635
same,"C7/DMSO, YWHAG (P61981)",Pt3R cells [1]; protein decreased,0.447
same,"C7/DMSO, ACTB (P60709)",Pt3R cells [1]; protein increased,1.657
same,"C7/DMSO, ARF3 (P61204)",Pt3R cells [1]; protein increased,1.944
same,"C7/DMSO, ATP5IF1 (Q9UII2)",Pt3R cells [1]; protein increased,1.646
same,"C7/DMSO, ATP6 V1E1 (P36543)",Pt3R cells [1]; protein increased,1.599
same,"C7/DMSO, CLIC1 (O00299)",Pt3R cells [1]; protein increased,2.598
same,"C7/DMSO, CTNNB1 (P35222)",Pt3R cells [1]; protein increased,1.550
same,"C7/DMSO, EEF1B2 (P24534)",Pt3R cells [1]; protein increased,1.792
same,"C7/DMSO, EHD1 (Q9H4M9)",Pt3R cells [1]; protein increased,1.555
same,"C7/DMSO, GIPC1 (O14908)",Pt3R cells [1]; protein increased,1.699
same,"C7/DMSO, HK1 (P19367)",Pt3R cells [1]; protein increased,1.921
same,"C7/DMSO, HSP90AA1 (P07900)",Pt3R cells [1]; protein increased,1.958
same,"C7/DMSO, HSPA1A (P0DMV8)",Pt3R cells [1]; protein increased,2.843
same,"C7/DMSO, HSPA4 (P34932)",Pt3R cells [1]; protein increased,1.561
same,"C7/DMSO, HSPA8 (P11142)",Pt3R cells [1]; protein increased,2.096
same,"C7/DMSO, HSPB1 (P04792)",Pt3R cells [1]; protein increased,1.661
same,"C7/DMSO, HSPE1 (P61604)",Pt3R cells [1]; protein increased,1.710
same,"C7/DMSO, HSPH1 (Q92598)",Pt3R cells [1]; protein increased,1.642
same,"C7/DMSO, LRPAP1 (P30533)",Pt3R cells [1]; protein increased,1.667
same,"C7/DMSO, NME1 (P15531)",Pt3R cells [1]; protein increased,3.299
same,"C7/DMSO, OCIAD2 (Q56VL3)",Pt3R cells [1]; protein increased,2.150
same,"C7/DMSO, OLA1 (Q9NTK5)",Pt3R cells [1]; protein increased,1.745
same,"C7/DMSO, P4HA2 (O15460)",Pt3R cells [1]; protein increased,1.588
same,"C7/DMSO, PSMD3 (O43242)",Pt3R cells [1]; protein increased,1.801
same,"C7/DMSO, PSMD14 (O00487)",Pt3R cells [1]; protein increased,1.579
same,"C7/DMSO, S100A10 (P60903)",Pt3R cells [1]; protein increased,1.664
same,"C7/DMSO, SERPINE1 (P05121)",Pt3R cells [1]; protein increased,4.203
same,"C7/DMSO, SERPINH1 (P50454)",Pt3R cells [1]; protein increased,2.186
same,"C7/DMSO, TWF1 (Q12792)",Pt3R cells [1]; protein increased,1.995
same,"C7/DMSO, ZYX (Q15942)",Pt3R cells [1]; protein increased,1.903
same,concentration at 0.03 hr,"[2]; Rat IV 2 mg/kg, 0.03 hr, read-out: Drug Conc. Avg.",2790 ng/mL
same,concentration at 0.08 hr,"[2]; Rat IV 2 mg/kg, 0.08 hr, read-out: Drug Conc. Avg.",929 ng/mL
same,concentration at 0.25 hr,[2]; [4],406 ng/mL
same,concentration at 0.5 hr,[2]; [4],218 ng/mL
same,concentration at 1 hr,[2]; [4],76.6 ng/mL
same,concentration at 2 hr,[2]; [4],30.5 ng/mL
same,concentration at 4 hr,[2]; [4],5 ng/mL
same,concentration at 6 hr,[2]; [4],1.1 ng/mL
same,AUC(0-inf),"[2]; Rat IV, dose 2 mg/kg",470 ± 32 ng·h/mL
same,clearance,"[2]; Rat IV, dose 2 mg/kg",81.8 ± 5.8 mL/min/kg
same,half-life,"[2]; Rat IV, dose 2 mg/kg",0.8 h
same,Vd,"[2]; Rat IV, dose 2 mg/kg, read-out: Vss",3 ± 0.5 L/kg
same,bioavailability,[2]; Rat PO 20 mg/kg vs IV 2 mg/kg,2.3%
same,concentration at 0.25 hr,[2]; [5],23 ng/mL
same,concentration at 0.5 hr,[2]; [5],11.1 ng/mL
same,concentration at 1 hr,[2]; [5],23.8 ng/mL
same,concentration at 2 hr,[2]; [5],15.3 ng/mL
same,concentration at 4 hr,[2]; [5],18.1 ng/mL
same,concentration at 6 hr,[2]; [5],4 ng/mL
same,concentration at 8 hr,"[2]; Rat PO 20 mg/kg, 8 hr, read-out: Drug Conc. Avg.",2.9 ng/mL
same,AUC(0-inf),"[2]; Rat PO, dose 20 mg/kg",106 ± 62 ng·h/mL
same,Cmax,"[2]; Rat PO, dose 20 mg/kg",23.8 ± 8.9 ng/mL
same,Tmax,"[2]; Rat PO, dose 20 mg/kg",1 h
same,half-life,"[2]; Rat PO, dose 20 mg/kg",1.8 ± 0.5 h
same,cell cycle,Pt3R cells [3],induced cell cycle arrest at the M phase
same,IC50,EZH2,6.29 nM
same,MitoSOX red signal representing ROS produced from mitochondria,mitochondria-derived ROS,remarkably enhanced
